Positions of bridges follow the written chain, without caps; N, C: chain ends. Non-standard residues stand in square brackets, D forms with d. Residues, ends and D or L forms follow the SMILES beside them. Chains are numbered I, II in the order given. *: point of attachment. PEG6 = NCCOCCOCCOCCOCCOCCOCCC(=O)O; Palmitoyl = CCCCCCCCCCCCCCCC(=O)*
Assays:
[1] = tested on: primary mouse cortical neurons; experiment: Multi-electrode array (MEA) electrophysiology of neuronal cultures; format: cell-based; conditions: for spontaneous firing frequency: 30 days in vitro, relative to control condition; for network burst duration / spikes per network burst: over time, vs control media
Experimental: Electrophysiology—Multi Electrode Array (MEA) Plates. For 2D electrophysiology studies, 12 well MEA plates with 64 electrodes per well were coated with PEI and laminin according to Axion Biosystems protocols.^5 Embryonic primary neurons were seeded at a density of 60,000 cells/well and cultured during 14 DIV. On day 14, cells were treated with BDNF protein, BDNF PA, BDNF Peptide, or starvation media. Every 5 days, half of the media was removed from each well and replaced with fresh media containing additional treatment. Spontaneous network and synchronized activity was recorded using Axion Biosystems Maestro 768 channel amplifier and Axion Integrated Studios (AxIS) v2.4 software. The amplifier recorded from all channels simultaneously using a gain of 1200× and a sampling rate of 12.5 kHz/channel. After passing the signal through a Butterworth band-pass filter (300-5000 Hz) on-line spike detection (threshold=6× the root-mean-square of noise on each channel) was done with the AxIS adaptive spike detector. All recordings were conducted at 37° C. with appropriate 5% CO2/95% O2. Spontaneous network activity was recorded for 5 min each day starting at 10 DIV. Active electrodes were defined as having >5 spikes/min and only wells with over 10 active electrodes during the baseline-recording period were used in the analysis. Synchronized activity was defined as spike and burst activity that occurred on 25% of the electrodes or more in a well within 100 ms of each other. […] All data reflects well-wide averages, where the reported value of n represents the number of wells per condition.

MAPK pathway (pErk 1/2) = experiment: MAPK pathway activation, western blot of phosphorylated Erk (pErk 1/2); format: cell-based, mouse; conditions: 6 h of treatment, vs control conditions
Experimental: (§1) For western blot, cells were cultured in 6 well plates at a density of approximately 900,000 cells/well for 14 DIV before being treated. Treatments were added for 2, 4, 6, 8, 12 or 24 h in vitro before protein was harvested. For TrkB inhibitor studies, cells were cultured for 14 DIV and then treated with a TrkB specific inhibitor, K-252a (Sigma Aldrich), for 1 hour prior to being treated with the different conditions mentioned above. Protein was extracted after six hours of treatment.
(§2) Western Blot. Protein was extracted from primary neuronal cultures with Halt Protease and Phosphatase Inhibitor Cocktail (Thermo Scientific) and a BCA assay (Thermo Scientific) was performed to determine protein content of each sample. Cell protein was loaded into and separated using a 4-20% SDS-PAGE gel (Bio-Rad). It was then electrotransferred from the gel to a nitrocellulose membrane (Bio-Rad). The membranes were blocked with 5% milk solution (Bio-Rad) for 30 minutes followed by an overnight incubation with primary antibodies at 4° C. […] Protein signals were detected using Radiance Bioluminescent ECL substrate (Azure Biosystems). Densitometry analysis, standardized to total receptor content or Actin as a control for protein loading, was performed using ImageJ software.^3 For quantification, triplicate samples were analyzed and at least two different experiments were conducted.

neuronal cells = experiment: Neuronal maturation markers (MAP2, PSD95) by immunocytochemistry and western blot; format: cell-based, mouse; conditions: neuronal cells (14 DIV) cultured during 16 DIV with treatment
Experimental: as §2, with “conducted. […]” for “conducted.”

PI3K pathway (pAKT) = experiment: PI3K pathway activation, western blot of phosphorylated AKT (pAKT); format: cell-based, mouse; conditions: 6 h of treatment, vs control conditions
Experimental: as §1, §2

`CCCCCCCCCCCCCCCC(=O)N[C@H](C(=O)N[C@H](C(=O)N[C@@H](C)C(=O)N[C@@H](C)C(=O)N[C@@H](CCC(=O)O)C(=O)N[C@@H](CCC(=O)O)C(=O)N[C@@H](CCC(=O)O)C(=O)N[C@@H](CCC(=O)O)C(=O)NCCOCCOCCOCCOCCOCCOCCC(=O)NCCCC[C@@H]1NC(=O)[C@H]2CCCN2C(=O)[C@H](CCCNC(=N)N)NC(=O)[C@H](CCCCN)NC(=O)[C@H](CCCCN)NC1=O)C(C)C)C(C)C` [BDNF PA, RKK(aK)(dP)-(PEG6 Spacer)-EEEEAAVV-C16 (SEQ ID NO: 5)] (I: Palmitoyl-VVAAEEEE[PEG6] / II: cyclo(KKKR[dP]); amide I:C-II:1) was tested, and the spontaneous firing frequency [1] was “increased spontaneous firing frequency relative to the control condition”, the network burst duration [1] was “longer network bursts” and the “spikes per network burst” value [1] was “significantly more spikes per network burst”. For the same molecule, the “activation of the MAPK pathway (pErk 1/2)” value (MAPK pathway (pErk 1/2)) was “marked increase in activation”, the “MAP2 expression (neuronal maturation marker)” value (neuronal cells) was “significant increase” and the “activation of the PI3K pathway (pAKT)” value (PI3K pathway (pAKT)) was “marked increase in activation”.

B1: BDNF protein: Human/Murine/Rat BDNF protein (Peprotech) (protein, UniProt P23560 19-247, looked up)
Neurotrophic factor BDNF …: APMKEANIRGQGGLAYPGVRTHGTLESVNGPKAGSRGLTSLADTFEHVIEELLDEDQKVRPNEENNKDADLYTSRVMLSSQVPLEPPLLFLLEEYKNYLDAANMSMRVRRHSDPARRGELSVCDSISEWVTAADKKTAVDMSGGTVTVLEKVPVSKGQLKQYFYETKCNPMGYTKEGCRGIDKRHWNSQCRTTQSYVRALTMDSKKRIGWRFIRIDTSCVCTLTIKRGR
B1 was tested, and the spontaneous firing frequency [1] was “increased spontaneous firing frequency relative to the control condition”, the network burst duration [1] was “longer network bursts” and the “spikes per network burst” value [1] was “significantly more spikes per network burst”. The “activation of the MAPK pathway (pErk 1/2)” value (MAPK pathway (pErk 1/2)) was “marked increase in activation”, the “MAP2 expression (neuronal maturation marker)” value (neuronal cells) was “significant increase” and the “activation of the PI3K pathway (pAKT)” value (PI3K pathway (pAKT)) was “marked increase in activation”.

Source: patent US12122811B2, “BDNF mimetic peptide amphiphiles” (Northwestern University, priority 2018, dated 2024)
